The target of the experiment is T1, ΔF508-CFTR (Homo sapiens, UniProt P13569, DEL508-508).
T1 construct: Primary lung epithelial cells homozygous for the Cystic Fibrosis-causing ΔF508 mutation; endogenous in cells; host or cells: primary human lung (bronchial) epithelial cells homozygous for ΔF508, differentiated at air-liquid interface
T1 sequence (P13569 with tags, fused parts or gaps DEL508-508): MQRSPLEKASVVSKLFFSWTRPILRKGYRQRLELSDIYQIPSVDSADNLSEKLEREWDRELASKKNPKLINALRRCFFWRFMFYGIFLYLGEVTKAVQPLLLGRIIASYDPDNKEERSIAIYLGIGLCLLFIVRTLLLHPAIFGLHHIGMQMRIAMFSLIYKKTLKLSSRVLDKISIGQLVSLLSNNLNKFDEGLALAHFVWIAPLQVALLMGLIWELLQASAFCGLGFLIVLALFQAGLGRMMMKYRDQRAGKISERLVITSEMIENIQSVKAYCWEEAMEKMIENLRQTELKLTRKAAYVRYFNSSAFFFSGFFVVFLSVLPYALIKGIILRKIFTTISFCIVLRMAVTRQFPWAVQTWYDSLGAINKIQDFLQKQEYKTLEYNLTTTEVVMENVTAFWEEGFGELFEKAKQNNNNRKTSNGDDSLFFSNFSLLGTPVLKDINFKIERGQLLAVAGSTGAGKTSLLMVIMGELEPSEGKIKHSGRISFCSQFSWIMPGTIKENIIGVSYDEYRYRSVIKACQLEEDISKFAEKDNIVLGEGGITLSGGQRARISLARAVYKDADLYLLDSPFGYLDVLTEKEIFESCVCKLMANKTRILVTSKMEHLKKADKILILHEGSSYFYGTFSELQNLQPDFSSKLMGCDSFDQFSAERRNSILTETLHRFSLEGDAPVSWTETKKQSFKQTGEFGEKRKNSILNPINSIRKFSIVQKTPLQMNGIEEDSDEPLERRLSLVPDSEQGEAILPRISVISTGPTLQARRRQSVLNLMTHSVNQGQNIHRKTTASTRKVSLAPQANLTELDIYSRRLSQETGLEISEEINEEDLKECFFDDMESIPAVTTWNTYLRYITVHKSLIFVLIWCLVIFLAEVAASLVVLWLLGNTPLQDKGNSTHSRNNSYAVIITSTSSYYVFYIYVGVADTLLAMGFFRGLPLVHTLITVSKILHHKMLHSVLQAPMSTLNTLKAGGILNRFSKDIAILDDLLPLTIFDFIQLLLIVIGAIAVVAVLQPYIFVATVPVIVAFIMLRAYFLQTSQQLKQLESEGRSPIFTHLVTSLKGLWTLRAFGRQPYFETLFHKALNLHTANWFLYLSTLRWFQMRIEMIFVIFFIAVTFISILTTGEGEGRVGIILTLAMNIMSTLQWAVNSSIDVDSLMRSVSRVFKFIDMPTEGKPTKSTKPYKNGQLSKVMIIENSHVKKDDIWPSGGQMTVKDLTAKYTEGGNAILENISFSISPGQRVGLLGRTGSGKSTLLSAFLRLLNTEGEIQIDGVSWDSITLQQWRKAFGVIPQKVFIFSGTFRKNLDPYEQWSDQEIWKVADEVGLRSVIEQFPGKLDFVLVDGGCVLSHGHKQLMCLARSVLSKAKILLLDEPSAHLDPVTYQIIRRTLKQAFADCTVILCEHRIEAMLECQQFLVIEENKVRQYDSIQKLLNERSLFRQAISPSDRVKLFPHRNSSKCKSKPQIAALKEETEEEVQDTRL
As to the kind of experiment: hBE equivalent current (Ieq) assay. The format is cell-based. To be noted: compound at 10 uM together with VX-809 at 1 uM, relative to VX-809 (1 uM); AUC of equivalent chloride current; primary hBE homozygous ΔF508; 24 h treatment. On the procedure: Primary lung epithelial cells homozygous for the Cystic Fibrosis-causing ΔF508 mutation were differentiated for a minimum of 4 weeks in an air-liquid interface on Costar 24 well HTS filter plates prior to the equivalent current (Ieq) measurements. Cells were apically mucus-washed for 30 minutes 24 h prior to treatment with compounds. The basolateral media was removed and replaced with media containing the compound of interest diluted to its final concentration from DMSO stocks. Treated cells were incubated at 37° C. and 5% CO2 for 24 hours. At the end of the treatment period, the media was changed to the Ieq experimental solution for 30 minutes before the experiment and plates are maintained in a CO2-free incubator during this period. The plates containing the cells were then placed in pre-warmed heating blocks at 36° C.±0.5 for 15 minutes before measurements are taken. The transepithelial voltage (VT) and conductance (GT) were measured using a custom 24 channel current clamp (TECC-24) with 24 well electrode manifold. The Ieq assay measurements were made following additions with standardized time periods: • 1. The baseline VT and GT values were measured for approximately 20 minutes. • 2. Benzamil was added to block ENaC for 15 minutes. • 3. Forskolin plus VX-770 were added to maximally activate ΔF508-CFTR for 27 minutes. • 4. Bumetanide was added to inhibit the NaK2Cl cotransporter and shut-off secretion of chloride.
The activity data captured was the area under the curve (AUC) for the traces of the equivalent chloride current. The AUC was collected from the time of the forskolin/VX-770 addition until the inhibition by bumetanide addition. Correction in response to compound treatment was scored as the increase in the AUC for compound-treated samples over that of vehicle-treated samples. The results are shown below in Table 2 (++indicates activity ≧25% run at 10 uM of VX-809 at 1 uM; +indicates activity 10 to <25% run at 10 uM of VX-809 at 1 uM; ** indicates activity ≧200% of VX-809 (1 uM) with compound at 10 uM and VX-809 at 1 uM; * indicates activity 100-200% of VX-809 (1 uM) with compound at 10 uM and VX-809 at 1 uM)
Regarding `COC(C)c1nnc(CCNC(=O)c2cc(-c3ccccc3)on2)o1` (stereo in doubt) [Compound A24-a, (R)-N-(2-(5-(1-methoxyethyl)-1,3,4-oxadiazol-2-yl)ethyl)-5-phenylisoxazole-3-carboxamide], the “Ieq Activity” value is “* (* indicates activity 100-200% of VX-809 (1 uM) with compound at 10 uM and VX-809 at 1 uM)”.

Take `COC(C)c1nnc(CCNC(=O)c2cc(-c3ccccc3)on2)o1` (stereo in doubt) [Compound A24-b, (S)-N-(2-(5-(1-methoxyethyl)-1,3,4-oxadiazol-2-yl)ethyl)-5-phenylisoxazole-3-carboxamide]: the “Ieq Activity” value is “* (* indicates activity 100-200% of VX-809 (1 uM) with compound at 10 uM and VX-809 at 1 uM)”.

For the compound `O=C(NCCc1nnc(CBr)s1)c1cc(-c2ccccc2)on1` [Compound A3, N-(2-(5-(bromomethyl)-1,3,4-thiadiazol-2-yl)ethyl)-5-phenylisoxazole-3-carboxamide], the “Ieq Activity” value is “** (** indicates activity ≧200% of VX-809 (1 uM) with compound at 10 uM and VX-809 at 1 uM)”.

Turning to `COCc1nnc(CCNC(=O)c2cc(-c3ccccc3)on2)s1` [Compound A4, N-(2-(5-(methoxymethyl)-1,3,4-thiadiazol-2-yl)ethyl)-5-phenylisoxazole-3-carboxamide], the “Ieq Activity” value is “** (** indicates activity ≧200% of VX-809 (1 uM) with compound at 10 uM and VX-809 at 1 uM)”.

For `COCc1nnc(CCNC(=O)c2cc(-c3ccccc3)on2)o1` [Compound A5, N-(2-(5-(methoxymethyl)-1,3,4-oxadiazol-2-yl)ethyl)-5-phenylisoxazole-3-carboxamide], the “Ieq Activity” value was “** (** indicates activity ≧200% of VX-809 (1 uM) with compound at 10 uM and VX-809 at 1 uM)”.

For the compound `Cc1nnc(CCCNC(=O)c2cc(-c3ccccc3)on2)s1` [Compound A6, N-(3-(5-methyl-1,3,4-thiadiazol-2-yl)propyl)-5-phenylisoxazole-3-carboxamide], the “Ieq Activity” value was “** (** indicates activity ≧200% of VX-809 (1 uM) with compound at 10 uM and VX-809 at 1 uM)”.

`[N-]=[N+]=NCc1nnc(CCNC(=O)c2cc(-c3ccccc3)on2)s1` [Compound A7, N-(2-(5-(azidomethyl)-1,3,4-thiadiazol-2-yl)ethyl)-5-phenylisoxazole-3-carboxamide]: the “Ieq Activity” value was “** (** indicates activity ≧200% of VX-809 (1 uM) with compound at 10 uM and VX-809 at 1 uM)”.

As for `CC(C)c1nnc(CCNC(=O)c2cc(-c3ccccc3)on2)o1` [Compound A8, N-(2-(5-isopropyl-1,3,4-oxadiazol-2-yl)ethyl)-5-phenylisoxazole-3-carboxamide], the “Ieq Activity” value was “** (** indicates activity ≧200% of VX-809 (1 uM) with compound at 10 uM and VX-809 at 1 uM)”.

As to `CC(C)(O)c1nnc(CCNC(=O)c2cc(-c3ccccc3)on2)s1` [Compound A9, N-(2-(5-(2-hydroxypropan-2-yl)-1,3,4-thiadiazol-2-yl)ethyl)-5-phenylisoxazole-3-carboxamide], the “Ieq Activity” value was “** (** indicates activity ≧200% of VX-809 (1 uM) with compound at 10 uM and VX-809 at 1 uM)”.

As for `CC(C)(O)c1nnc(CCNC(=O)c2cc(-c3ccccc3)on2)o1` [Compound A10, N-(2-(5-(2-hydroxypropan-2-yl)-1,3,4-oxadiazol-2-yl)ethyl)-5-phenylisoxazole-3-carboxamide], the “Ieq Activity” value was “** (** indicates activity ≧200% of VX-809 (1 uM) with compound at 10 uM and VX-809 at 1 uM)”.

`O=C(NCCc1nnc(CO)s1)c1noc(-c2ccccc2)c1F` [Compound A11, 4-fluoro-N-(2-(5-(hydroxymethyl)-1,3,4-thiadiazol-2-yl)ethyl)-5-phenylisoxazole-3-carboxamide]: the “Ieq Activity” value is “* (* indicates activity 100-200% of VX-809 (1 uM) with compound at 10 uM and VX-809 at 1 uM)”.

Consider `O=C(NCCc1nnc(CO)s1)c1noc(-c2ccc(F)cc2)c1F` [Compound A12, 4-fluoro-5-(4-fluorophenyl)-N-(2-(5-(hydroxymethyl)-1,3,4-thiadiazol-2-yl)ethyl)isoxazole-3-carboxamide], for which the “Ieq Activity” value was “* (* indicates activity 100-200% of VX-809 (1 uM) with compound at 10 uM and VX-809 at 1 uM)”.

As to `C[C@@H](O)c1nnc(CCNC(=O)c2cc(-c3ccccc3)on2)s1` [Compound A13, (R)-N-(2-(5-(1-hydroxyethyl)-1,3,4-thiadiazol-2-yl)ethyl)-5-phenylisoxazole-3-carboxamide], the “Ieq Activity” value was “** (** indicates activity ≧200% of VX-809 (1 uM) with compound at 10 uM and VX-809 at 1 uM)”.

For the compound `C[C@@H](O)c1nnc(CCNC(=O)c2cc(-c3ccccc3)on2)o1` [Compound A14, (R)-N-(2-(5-(1-hydroxyethyl)-1,3,4-oxadiazol-2-yl)ethyl)-5-phenylisoxazole-3-carboxamide], the “Ieq Activity” value is “* (* indicates activity 100-200% of VX-809 (1 uM) with compound at 10 uM and VX-809 at 1 uM)”.

Regarding `O=C(NCCc1nnc(COC(F)(F)F)o1)c1cc(-c2ccccc2)on1` [Compound A15, 5-phenyl-N-(2-(5-((trifluoromethoxy)methyl)-1,3,4-oxadiazol-2-yl)ethyl)isoxazole-3-carboxamide], the “Ieq Activity” value was “* (* indicates activity 100-200% of VX-809 (1 uM) with compound at 10 uM and VX-809 at 1 uM)”.

For the compound `O=C(NCCc1nnc(COC(F)(F)F)s1)c1cc(-c2ccccc2)on1` [Compound A16, 5-phenyl-N-(2-(5-((trifluoromethoxy)methyl)-1,3,4-thiadiazol-2-yl)ethyl)isoxazole-3-carboxamide], the “Ieq Activity” value was “* (* indicates activity 100-200% of VX-809 (1 uM) with compound at 10 uM and VX-809 at 1 uM)”.

On to `O=C(NCCc1nnc(C(O)C(F)(F)F)s1)c1cc(-c2ccccc2)on1` (stereo not shown) [Compound A23, 5-phenyl-N-(2-(5-(2,2,2-trifluoro-1-hydroxyethyl)-1,3,4-thiadiazol-2-yl)ethyl)isoxazole-3-carboxamide], for which the “Ieq Activity” value is “** (** indicates activity ≧200% of VX-809 (1 uM) with compound at 10 uM and VX-809 at 1 uM)”.

As to `CO[C@@H](C)c1nnc(CCNC(=O)c2cc(-c3ccccc3)on2)s1` [Compound A25-a, (S)-N-(2-(5-(1-methoxyethyl)-1,3,4-thiadiazol-2-yl)ethyl)-5-phenylisoxazole-3-carboxamide], the “Ieq Activity” value is “** (** indicates activity ≧200% of VX-809 (1 uM) with compound at 10 uM and VX-809 at 1 uM)”.

In the case of `CO[C@H](C)c1nnc(CCNC(=O)c2cc(-c3ccccc3)on2)s1` [Compound A25-b, (R)-N-(2-(5-(1-methoxyethyl)-1,3,4-thiadiazol-2-yl)ethyl)-5-phenylisoxazole-3-carboxamide], the “Ieq Activity” value is “** (** indicates activity ≧200% of VX-809 (1 uM) with compound at 10 uM and VX-809 at 1 uM)”.

The record behind these values is patent US9790219B2, “Compounds, compositions, and methods for increasing CFTR activity” (Proteostasis Therapeutics, Inc., priority 2014, dated 2017).
